In patent US8481543B2, “Compounds for treating parasitic disease” (Oregon Health & Science University, priority 2008, dated 2013):
Like-named read-outs stand apart in the source and are kept apart here.

Columns and labels:
[1] = test system: Plasmodium falciparum Tm90.C2B strain (multidrug-resistant); experiment: Antiplasmodial fluorescence-based SyBr Green assay, Tm90.C2B strain; type: cell-based; settings: read-out: Antiplasmodial IC50, Tm90.C2B strain
Description: (§1) Parasite culture and drug susceptibility assays: Four different laboratory strains of P. falciparum were cultured in human erythrocytes by standard methods under a low oxygen atmosphere (5% O2, 5% CO2, 90% N2) in an environmental chamber (Trager, W., and J. Jensen. 1976. Human malaria parasites in continuous culture. Science 193:673-675). The culture medium was RPMI 1640, supplemented with 25 mM Hepes buffer, 25 mg/liter gentamicin sulfate, 45 mg/liter hypoxanthine, 10 mM glucose, 2 mM glutamine, and 0.5% Albumax II. The parasites were maintained in fresh human erythrocytes suspended at a 2% hematocrit in complete medium at 37° C. Stock cultures were sub-passaged every 3 to 4 days by transfer of infected red cells to a flask containing complete medium and uninfected erythrocytes.
(§2) In vitro antimalarial activity of the test compounds was assessed by a fluorescence-based method described previously by Smilkstein M., N. Sriwilaijaroen, J. X. Kelly, P. Wilairat, and M. Riscoe. 2004. Simple and inexpensive fluorescence-based technique for high-throughput antimalarial drug screening. Antimicrob Agents Chemother 48:1803-6. The experiments were set up in triplicate in 96 well plates with two-fold dilutions of each compound across the plate in a total volume of 100 μl and at a final red blood cell concentration of 2% (v/v). Stock solutions of each compound were prepared by dissolving in DMSO at 10 mM. […] In every case, an additional determination was performed to ensure bracketing of the IC50 value by at least an order of magnitude. Automated pipeting and dilution was carried out by a programmable Precision 2000 robotic station (Bio-Tek, Winooski, Vt.). An initial parasitemia of 0.2% was attained by addition of normal uninfected red cells to a stock culture of asynchronous parasite infected red cells (PRBC). The plates were incubated for 72 hrs at 37° C. in an atmosphere of 5% CO2, 5% O2, and 90% N2. After this period the SyBr Green I dye-detergent mixture (100 μl) was added and the plates were incubated at room temperature for an hour in the dark and then placed in a 96-well fluorescence plate reader (Gemini-EM, […]) for analysis with excitation and emission wavelength bands centered at 497 and 520 nm, respectively.

[2] = test system: Plasmodium falciparum D6 strain (chloroquine sensitive); experiment: Antiplasmodial fluorescence-based SyBr Green assay, D6 strain; type: cell-based
Description: as §1, §2

[3] = test system: Plasmodium falciparum Dd2 strain (multidrug-resistant); experiment: Antiplasmodial fluorescence-based SyBr Green assay, Dd2 strain; type: cell-based; settings: read-out: Antiplasmodial IC50, Dd2 strain
Description: as §1, §2

[4] = test system: P. falciparum strains (D6, Dd2, Tm90.C2B, 7G8); experiment: Antiplasmodial SyBr Green assay, summary across strains; type: cell-based, Plasmodium falciparum; settings: for IC50: Plasmodium falciparum
Description: as §1
as §2, with “An initial parasitemia of 0.2% was attained by addition of normal uninfected red cells to a stock culture of asynchronous parasite infected red cells (PRBC). The plates were incubated for 72 hrs at 37° C. in an atmosphere of 5% CO2, 5% O2, and 90% N2.” left out

[5] = test system: Plasmodium falciparum 7G8 strain (multidrug-resistant); experiment: Antiplasmodial fluorescence-based SyBr Green assay, 7G8 strain; type: cell-based; settings: read-out: Antiplasmodial IC50, 7G8 strain
Description: as §1, §2

Plasmodium yoelii = experiment: Modified Thompson test, suppression of patent infection in mice; type: in vivo; settings: P. yoelii in CF1 mice; gavage daily for 3 days; smears on 4th day; pharmachins free base in miglyol 812, chloroquine in water
Description: Efficacy of compounds in vivo. […] This test monitors suppression of patent infection in female CF1 Swiss albino mice (≈20 gm). A test begins with the inoculation of Plasmodium yoelii parasitized erythrocytes (100,000 to 500,000; obtained from a donor animal) on the first day of the experiment (D0). After 24 hours, the standard agents or pharmachin compounds were administered by gavage at daily intervals for three successive days. Initially the test compounds were examined at 128 mg/kg/day, 64 mg/kg/day, 16 mg/kg/day and 4 mg/kg/day and including a vehicle-only control. […] The parasite burden in each blood sample was determined by direct microscopic analysis of methanol-fixed, Giemsa-stained blood smears. […] The ED50 value is the dosage of drug required to achieve a 50% reduction in parasitemia relative to the vehicle-only control; non-linear regression analysis was employed to generate ED50s from the accumulated data.
Mice were split into groups of 3 each and animals were dosed by gavage at the following dosages: 128 mg/kg; 64 mg/kg; 16 mg/kg; and 3 mg/kg. The drugs were administered daily for 3 days and blood smears were taken on the 4th day. […] ED50 values were calculated by graphical analysis of the dose-response effect.

P. berghei (ANKA/GFP) = experiment: Modified 4 day test in infected mice; type: in vivo
Description: Follow-up studies with Pharmachin 128 were preformed in mice infected with P. berghei (ANKA/GFP) using a modified 4 day test. Animals (CF1) were inoculated (iv) with 1 million infected red blood cells, obtained from donor animals, and then randomly sorted into groups of 5 mice each.
In this set of experiments Pharmachin 128 was administered daily by gavage as the citrate salt dissolved in water (100 μl) for each of 4 days. Dosing was set at 64, 16, 4, 2, and 1 mg/kg/day, respectively, and including a no drug control. Blood films were prepared on the 5th day (i.e., the day after the final drug dose), fixed in methanol, stained with Giemsa, and viewed microscopically to assess parasitemia.

[6] = multidrug-resistant Tm90.C2B strain, 72 hrs, mean of at least two experiments in triplicate
[7] = Plasmodium falciparum, D6, 72 h; read-out: Antiplasmodial IC50, D6 strain
[8] = Plasmodium falciparum, multidrug-resistant Dd2 strain, 72 hrs, mean of at least two experiments in triplicate
[9] = Plasmodium falciparum, multidrug-resistant 7G8 strain, 72 hrs, mean of at least two experiments in triplicate
[10] = 64 mg/kg/day, gavage, 4 days, citrate salt
[11] = P. berghei in CF1 mice, citrate salt in water by gavage daily for 4 days, parasitemia on 5th day

Row | Compound | IC50 [1, 6] [nM] | IC50 [2, 7] [nM] | IC50 [3, 8] [nM] | IC50 [5, 9] [nM] | further results
1 | CCN(CC)CCNc1c(C)cnc2cc(Cl)ccc12 [Pharmachin 127, 7-Chloro-3-Methyl-4-(3-(diethylamino)-ethylamino)-Quinoline] | 18.3 | 14.1 | 17.8 | – | –
2 | CCN(CC)CCCC(C)Nc1c(C)cnc2cc(Cl)ccc12 (stereo not shown) [Sontochin, 3-methyl-chloroquine, reference compound] | 13.8 | 8.6 | 11.3 | – | IC50 ([4]; range over strains as worded in text, read-out: IC50 values ranging, drug resistant strains of P. falciparum): 8.6 to 13.8 nM
3 | Cc1cnc2cc(Cl)ccc2c1N1CCN(CCCN2CCN(c3c(C)cnc4cc(Cl)ccc34)CC2)CC1 [3-methyl-piperaquine] | – | 4.6 | 6.5 | 9.5 | –
4 | CCN(CC)CCCNc1c(C)cnc2cc(Cl)ccc12 [Pharmachin 112, 7-Chloro-3-Methyl-4-(3-(diethylamino)-propylamino)-Quinoline] | 16.6 | 12.8 | 17.7 | – | ED50 (50% reduction in parasitemia) (Plasmodium yoelii): 6.5 mg/kg/day
5 | Cc1cnc2ccc(Cl)cc2c1NCCCNC(C)(C)C [Pharmachin 129, 6-Chloro-3-Methyl-4-(3-t-butylaminopropylamino)-Quinoline] | – | 94.8 | 127 | – | –
6 | O=C1C(O)=C([C@H]2CC[C@H](c3ccc(Cl)cc3)CC2)C(=O)c2ccccc21 [Atovaquone, reference compound] | 7700 | 0.1 | 0.1 | – | –
7 | CCN(CC)CCCNC1=CCNc2cc(Cl)ccc21 [AQ-13, reference compound] | – | 7.2 | 8.1 | 12 | Antiplasmodial activity against all tested drug resistant strains ([4]; in words): high level of antiplasmodial activity
8 | Clc1ccc2c(NCCCNC34CC5CC(CC(C5)C3)C4)ccnc2c1 [AQ-13-AD, 7-Chloro-(3-adamantylamino)-aminopropylquinoline] | 4.9 | 3.8 | 4.2 | – | –
9 | CCN(CC)CCCC(C)Nc1ccnc2cc(Cl)ccc12 (stereo not shown) [Chloroquine, reference compound] | – | – | – | – | IC50 ([5]; Plasmodium falciparum, 7G8, 72 h): 55 nM; IC50 ([1]; TM90, 72 h): 144 nM; IC50 ([2]; Plasmodium falciparum, D6, 72 h, read-out: Antiplasmodial IC50, D6 strain): 11.2 nM; IC50 ([3]; Plasmodium falciparum, DD2, 72 h): 160 nM
10 | 5.7-Difluoro-3-Methyl-4-(3-t-butylaminpropyl-amino)-Quinoline [Pharmachin 130] | – | – | – | – | IC50 ([5]; multidrug-resistant 7G8 strain, 72 hrs, mean of at least two experiments in triplicate): 25.9 nM; IC50 ([2]; chloroquine sensitive D6 strain; 72 hrs; mean of at least two experiments in triplicate; read-out: Antiplasmodial IC50, D6 strain): 15 nM; IC50 ([3]; multidrug-resistant Dd2 strain, 72 hrs, mean of at least two experiments in triplicate): 21.9 nM
11 | Cc1cnc2cc(Cl)ccc2c1NCCCNC(C)(C)C [Pharmachin 128, 7-Chloro-3-Methyl-4-(3-t-butylaminopropylamino)-quinoline] | 12 | 6.2 | 11.6 | 11.3 | IC50 ([4]; range over D6, Dd2, Tm90.C2B, 7G8, read-out: IC50 values ranging, all 4 P. falciparum strains): 6.2 to 12 nM; ED50 (50% reduction in parasitemia) (Plasmodium yoelii): 2.5 mg/kg/day; Animals recrudesced 2 weeks after the last dose (P. berghei (ANKA/GFP); 16 mg/kg/day group, gavage, 4 days, citrate salt): 2 of the 5; Bloodstream parasites on 5th day (P. berghei (ANKA/GFP); 16 mg/kg/day, gavage, 4 days, citrate salt): completely cleared; Bloodstream parasites on 5th day (P. berghei (ANKA/GFP); [10]): completely cleared; Parasitemia over full 30-day examination period (scored as cures) (P. berghei (ANKA/GFP); [10]): remained aparasitemic; ED50 (P. berghei (ANKA/GFP); [11]): 2.7 mg/kg/day; ED90 (P. berghei (ANKA/GFP); [11]): 4.7 mg/kg/day
12 | C=C[C@H]1C[N@@]2CC[C@H]1C[C@H]2[C@H](O)c1ccnc2ccc(OC)cc12 [Quinine, reference compound] | 96 | 19 | 87 | 29.5 | –
